# Legend:
# Format in all cases: ADME
# [1] = molecular target: T1, Solute carrier organic anion transporter family member 1B1 (Homo sapiens, UniProt Q9Y6L6); test: Substrates of transporters of clinical importance in the absorption and disposition of drugs, OATP1B1
# T1 sequence (Q9Y6L6 whole entry): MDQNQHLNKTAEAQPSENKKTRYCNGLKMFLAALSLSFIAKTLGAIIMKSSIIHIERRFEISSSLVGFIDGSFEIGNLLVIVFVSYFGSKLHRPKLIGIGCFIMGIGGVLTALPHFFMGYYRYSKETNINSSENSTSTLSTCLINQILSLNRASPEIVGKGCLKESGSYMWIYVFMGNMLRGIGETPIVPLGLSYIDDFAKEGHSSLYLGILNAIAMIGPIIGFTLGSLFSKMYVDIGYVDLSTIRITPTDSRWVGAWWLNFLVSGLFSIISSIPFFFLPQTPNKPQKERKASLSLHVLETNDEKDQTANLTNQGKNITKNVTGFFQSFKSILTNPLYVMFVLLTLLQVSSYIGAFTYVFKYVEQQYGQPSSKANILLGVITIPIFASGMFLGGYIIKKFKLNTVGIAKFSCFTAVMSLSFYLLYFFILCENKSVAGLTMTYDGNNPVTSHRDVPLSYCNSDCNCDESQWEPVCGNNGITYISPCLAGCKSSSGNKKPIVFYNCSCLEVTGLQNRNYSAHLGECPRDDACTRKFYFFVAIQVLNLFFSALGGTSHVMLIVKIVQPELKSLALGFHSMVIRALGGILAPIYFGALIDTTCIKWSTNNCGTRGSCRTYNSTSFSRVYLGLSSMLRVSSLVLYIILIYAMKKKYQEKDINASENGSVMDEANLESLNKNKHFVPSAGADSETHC
# [2] = molecular target: T2, Organic anion transporter 3 (Homo sapiens, UniProt Q8TCC7); test: Substrates of transporters of clinical importance in the absorption and disposition of drugs, OAT3
# T2 sequence (Q8TCC7 whole entry): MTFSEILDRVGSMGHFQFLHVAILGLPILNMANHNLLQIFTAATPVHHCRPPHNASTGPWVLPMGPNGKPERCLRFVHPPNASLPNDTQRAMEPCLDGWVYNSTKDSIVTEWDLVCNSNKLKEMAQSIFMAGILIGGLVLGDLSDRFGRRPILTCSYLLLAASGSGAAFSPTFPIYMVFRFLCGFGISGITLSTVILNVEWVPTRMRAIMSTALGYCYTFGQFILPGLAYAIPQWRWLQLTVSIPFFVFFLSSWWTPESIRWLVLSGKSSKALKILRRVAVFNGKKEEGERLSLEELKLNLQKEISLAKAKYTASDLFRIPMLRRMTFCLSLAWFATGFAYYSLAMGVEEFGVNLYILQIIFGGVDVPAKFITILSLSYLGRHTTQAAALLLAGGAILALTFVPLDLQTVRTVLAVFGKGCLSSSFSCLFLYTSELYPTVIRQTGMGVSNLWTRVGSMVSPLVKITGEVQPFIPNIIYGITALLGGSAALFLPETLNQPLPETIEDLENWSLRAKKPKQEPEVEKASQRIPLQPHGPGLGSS
# [3] = molecular target: T3, Solute carrier organic anion transporter family member 1A2 (Homo sapiens, UniProt P46721); test: Substrates of transporters of clinical importance in the absorption and disposition of drugs, OATP1A2
# T3 sequence (P46721 whole entry): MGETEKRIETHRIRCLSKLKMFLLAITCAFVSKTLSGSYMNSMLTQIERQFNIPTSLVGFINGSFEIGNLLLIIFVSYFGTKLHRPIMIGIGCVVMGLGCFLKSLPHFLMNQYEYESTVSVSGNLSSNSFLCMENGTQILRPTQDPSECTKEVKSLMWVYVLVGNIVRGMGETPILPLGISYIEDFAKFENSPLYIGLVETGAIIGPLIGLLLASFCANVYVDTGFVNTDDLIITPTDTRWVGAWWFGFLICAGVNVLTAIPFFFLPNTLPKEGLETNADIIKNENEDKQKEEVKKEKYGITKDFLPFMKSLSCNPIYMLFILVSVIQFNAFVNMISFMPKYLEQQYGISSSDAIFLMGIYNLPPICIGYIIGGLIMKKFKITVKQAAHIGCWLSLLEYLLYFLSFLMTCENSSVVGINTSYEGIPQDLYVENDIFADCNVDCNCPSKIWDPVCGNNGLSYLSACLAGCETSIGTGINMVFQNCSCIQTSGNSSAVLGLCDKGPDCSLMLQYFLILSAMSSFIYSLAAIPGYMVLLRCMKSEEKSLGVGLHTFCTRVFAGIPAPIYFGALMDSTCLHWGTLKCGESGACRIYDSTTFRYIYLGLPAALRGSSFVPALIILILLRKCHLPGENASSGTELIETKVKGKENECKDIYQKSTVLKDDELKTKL
# [4] = molecular target: T4, Solute carrier organic anion transporter family member 2B1 (Homo sapiens, UniProt O94956); test: Substrates of transporters of clinical importance in the absorption and disposition of drugs, OATP2B1
# T4 sequence (O94956 whole entry): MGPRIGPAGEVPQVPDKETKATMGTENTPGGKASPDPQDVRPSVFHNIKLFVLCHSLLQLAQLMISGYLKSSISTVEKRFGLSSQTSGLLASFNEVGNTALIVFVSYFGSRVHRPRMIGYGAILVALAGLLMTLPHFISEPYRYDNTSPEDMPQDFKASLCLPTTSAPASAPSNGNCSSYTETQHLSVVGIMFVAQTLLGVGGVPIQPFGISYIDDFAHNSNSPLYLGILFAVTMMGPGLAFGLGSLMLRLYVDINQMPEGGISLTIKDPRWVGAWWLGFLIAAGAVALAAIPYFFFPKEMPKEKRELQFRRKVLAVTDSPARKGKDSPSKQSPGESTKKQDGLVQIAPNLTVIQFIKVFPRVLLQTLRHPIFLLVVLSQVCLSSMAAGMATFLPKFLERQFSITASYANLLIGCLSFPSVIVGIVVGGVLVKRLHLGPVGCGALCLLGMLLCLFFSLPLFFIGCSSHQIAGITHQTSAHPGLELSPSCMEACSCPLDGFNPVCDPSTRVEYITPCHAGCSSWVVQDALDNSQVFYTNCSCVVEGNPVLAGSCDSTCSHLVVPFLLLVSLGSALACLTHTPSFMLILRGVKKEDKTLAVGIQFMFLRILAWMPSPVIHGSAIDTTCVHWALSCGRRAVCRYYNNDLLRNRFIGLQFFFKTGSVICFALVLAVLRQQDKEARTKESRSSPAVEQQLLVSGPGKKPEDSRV
# [5] = molecular target: T5, Solute carrier family 22 member 2 (Homo sapiens, UniProt O15244); test: Substrates of transporters of clinical importance in the absorption and disposition of drugs, OCT2
# T5 sequence (O15244 whole entry): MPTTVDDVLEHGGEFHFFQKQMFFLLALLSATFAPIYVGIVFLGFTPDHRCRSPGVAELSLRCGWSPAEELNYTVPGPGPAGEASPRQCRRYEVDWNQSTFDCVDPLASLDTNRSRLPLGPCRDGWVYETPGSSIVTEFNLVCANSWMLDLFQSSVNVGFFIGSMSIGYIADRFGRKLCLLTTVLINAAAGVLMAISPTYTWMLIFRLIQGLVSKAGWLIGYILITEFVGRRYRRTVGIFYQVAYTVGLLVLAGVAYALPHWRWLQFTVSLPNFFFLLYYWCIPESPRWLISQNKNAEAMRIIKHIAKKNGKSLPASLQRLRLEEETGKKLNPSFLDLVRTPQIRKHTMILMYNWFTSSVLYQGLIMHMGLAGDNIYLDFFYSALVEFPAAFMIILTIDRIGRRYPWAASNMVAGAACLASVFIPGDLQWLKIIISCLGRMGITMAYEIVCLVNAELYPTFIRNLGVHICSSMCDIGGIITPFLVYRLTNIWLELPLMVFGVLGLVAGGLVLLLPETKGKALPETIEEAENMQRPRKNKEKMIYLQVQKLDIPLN
# [6] = molecular target: T6, Solute carrier family 22 member 1 (Homo sapiens, UniProt O15245); test: Substrates of transporters of clinical importance in the absorption and disposition of drugs, OCT1
# T6 sequence (O15245 whole entry): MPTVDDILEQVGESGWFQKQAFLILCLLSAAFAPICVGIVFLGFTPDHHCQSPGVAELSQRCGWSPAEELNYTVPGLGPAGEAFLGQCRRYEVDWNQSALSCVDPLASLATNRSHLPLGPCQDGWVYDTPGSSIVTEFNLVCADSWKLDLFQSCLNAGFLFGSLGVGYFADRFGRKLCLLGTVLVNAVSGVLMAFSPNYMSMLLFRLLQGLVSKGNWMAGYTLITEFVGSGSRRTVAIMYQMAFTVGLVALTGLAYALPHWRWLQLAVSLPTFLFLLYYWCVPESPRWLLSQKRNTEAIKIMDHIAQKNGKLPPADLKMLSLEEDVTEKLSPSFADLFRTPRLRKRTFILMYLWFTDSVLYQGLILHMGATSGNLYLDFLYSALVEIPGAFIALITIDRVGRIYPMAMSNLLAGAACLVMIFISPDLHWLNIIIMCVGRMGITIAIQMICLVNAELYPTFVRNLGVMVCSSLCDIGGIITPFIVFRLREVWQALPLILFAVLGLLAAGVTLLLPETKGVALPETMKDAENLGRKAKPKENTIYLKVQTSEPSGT
# [7] = molecular target: T7, Solute carrier organic anion transporter family member 1B3 (Homo sapiens, UniProt Q9NPD5); test: Substrates of transporters of clinical importance in the absorption and disposition of drugs, OATP1B3
# T7 sequence (Q9NPD5 whole entry): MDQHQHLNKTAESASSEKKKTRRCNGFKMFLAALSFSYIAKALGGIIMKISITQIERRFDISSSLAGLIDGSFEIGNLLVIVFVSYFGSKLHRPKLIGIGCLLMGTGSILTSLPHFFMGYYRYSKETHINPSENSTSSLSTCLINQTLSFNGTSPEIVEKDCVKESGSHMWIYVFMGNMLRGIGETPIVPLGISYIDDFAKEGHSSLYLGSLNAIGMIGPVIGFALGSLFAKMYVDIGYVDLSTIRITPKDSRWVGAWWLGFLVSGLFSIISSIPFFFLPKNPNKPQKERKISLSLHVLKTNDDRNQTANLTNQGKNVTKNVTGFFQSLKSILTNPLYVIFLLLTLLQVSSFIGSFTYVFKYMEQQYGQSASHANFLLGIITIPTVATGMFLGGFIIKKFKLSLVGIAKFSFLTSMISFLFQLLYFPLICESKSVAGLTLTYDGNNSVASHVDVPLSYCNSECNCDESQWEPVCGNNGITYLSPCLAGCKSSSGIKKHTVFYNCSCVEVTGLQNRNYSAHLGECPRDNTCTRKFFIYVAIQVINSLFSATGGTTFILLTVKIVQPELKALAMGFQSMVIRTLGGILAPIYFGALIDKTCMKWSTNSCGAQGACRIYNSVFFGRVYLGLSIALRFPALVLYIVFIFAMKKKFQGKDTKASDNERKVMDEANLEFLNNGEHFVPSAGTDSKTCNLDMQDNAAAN
# [8] = molecular target: Phosphatidylcholine translocator ABCB4 (Homo sapiens, UniProt P21439); test: Substrates of transporters of clinical importance in the absorption and disposition of drugs, MDR3
# Chain of Phosphatidylcholine translocator ABCB4 (P21439 whole entry): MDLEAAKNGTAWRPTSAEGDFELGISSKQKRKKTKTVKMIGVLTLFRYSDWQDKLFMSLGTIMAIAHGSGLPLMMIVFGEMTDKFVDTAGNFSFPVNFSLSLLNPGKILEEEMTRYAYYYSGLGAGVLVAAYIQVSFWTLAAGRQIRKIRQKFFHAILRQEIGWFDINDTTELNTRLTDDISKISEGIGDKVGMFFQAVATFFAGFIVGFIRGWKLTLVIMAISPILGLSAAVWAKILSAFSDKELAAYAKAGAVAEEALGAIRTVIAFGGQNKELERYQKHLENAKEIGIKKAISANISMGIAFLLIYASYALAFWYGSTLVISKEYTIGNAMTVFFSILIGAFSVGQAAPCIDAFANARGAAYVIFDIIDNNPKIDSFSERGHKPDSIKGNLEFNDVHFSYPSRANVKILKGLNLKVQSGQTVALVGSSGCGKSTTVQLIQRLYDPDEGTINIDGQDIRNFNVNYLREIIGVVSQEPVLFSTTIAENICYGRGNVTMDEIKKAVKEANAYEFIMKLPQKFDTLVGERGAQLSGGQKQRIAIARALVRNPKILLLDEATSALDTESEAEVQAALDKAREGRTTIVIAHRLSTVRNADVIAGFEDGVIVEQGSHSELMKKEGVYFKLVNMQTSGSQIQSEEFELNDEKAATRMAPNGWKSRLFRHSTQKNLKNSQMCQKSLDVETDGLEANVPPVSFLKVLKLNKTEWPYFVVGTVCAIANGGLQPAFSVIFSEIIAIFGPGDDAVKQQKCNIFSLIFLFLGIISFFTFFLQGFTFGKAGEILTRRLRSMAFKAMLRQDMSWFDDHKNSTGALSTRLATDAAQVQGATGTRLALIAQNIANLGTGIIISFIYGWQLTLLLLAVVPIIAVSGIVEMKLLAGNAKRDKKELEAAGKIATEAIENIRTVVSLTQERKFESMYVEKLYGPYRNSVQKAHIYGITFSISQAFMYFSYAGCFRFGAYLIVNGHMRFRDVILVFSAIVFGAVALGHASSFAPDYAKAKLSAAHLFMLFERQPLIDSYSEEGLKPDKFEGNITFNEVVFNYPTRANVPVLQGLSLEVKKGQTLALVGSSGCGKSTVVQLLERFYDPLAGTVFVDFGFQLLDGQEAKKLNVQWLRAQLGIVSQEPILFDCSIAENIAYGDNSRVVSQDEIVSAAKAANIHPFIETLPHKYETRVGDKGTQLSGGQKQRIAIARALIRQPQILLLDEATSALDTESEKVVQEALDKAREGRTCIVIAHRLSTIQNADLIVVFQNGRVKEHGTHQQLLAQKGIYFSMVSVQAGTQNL
# [9] = molecular target: T5, Solute carrier family 22 member 2; test: Inhibitors of transporters of clinical importance in the absorption and disposition of drugs, OCT2
# [10] = molecular target: ATP-dependent translocase ABCB1 (Homo sapiens, UniProt P08183); test: Substrates of transporters of clinical importance in the absorption and disposition of drugs, MDR1
# Chain of ATP-dependent translocase ABCB1 (P08183 whole entry): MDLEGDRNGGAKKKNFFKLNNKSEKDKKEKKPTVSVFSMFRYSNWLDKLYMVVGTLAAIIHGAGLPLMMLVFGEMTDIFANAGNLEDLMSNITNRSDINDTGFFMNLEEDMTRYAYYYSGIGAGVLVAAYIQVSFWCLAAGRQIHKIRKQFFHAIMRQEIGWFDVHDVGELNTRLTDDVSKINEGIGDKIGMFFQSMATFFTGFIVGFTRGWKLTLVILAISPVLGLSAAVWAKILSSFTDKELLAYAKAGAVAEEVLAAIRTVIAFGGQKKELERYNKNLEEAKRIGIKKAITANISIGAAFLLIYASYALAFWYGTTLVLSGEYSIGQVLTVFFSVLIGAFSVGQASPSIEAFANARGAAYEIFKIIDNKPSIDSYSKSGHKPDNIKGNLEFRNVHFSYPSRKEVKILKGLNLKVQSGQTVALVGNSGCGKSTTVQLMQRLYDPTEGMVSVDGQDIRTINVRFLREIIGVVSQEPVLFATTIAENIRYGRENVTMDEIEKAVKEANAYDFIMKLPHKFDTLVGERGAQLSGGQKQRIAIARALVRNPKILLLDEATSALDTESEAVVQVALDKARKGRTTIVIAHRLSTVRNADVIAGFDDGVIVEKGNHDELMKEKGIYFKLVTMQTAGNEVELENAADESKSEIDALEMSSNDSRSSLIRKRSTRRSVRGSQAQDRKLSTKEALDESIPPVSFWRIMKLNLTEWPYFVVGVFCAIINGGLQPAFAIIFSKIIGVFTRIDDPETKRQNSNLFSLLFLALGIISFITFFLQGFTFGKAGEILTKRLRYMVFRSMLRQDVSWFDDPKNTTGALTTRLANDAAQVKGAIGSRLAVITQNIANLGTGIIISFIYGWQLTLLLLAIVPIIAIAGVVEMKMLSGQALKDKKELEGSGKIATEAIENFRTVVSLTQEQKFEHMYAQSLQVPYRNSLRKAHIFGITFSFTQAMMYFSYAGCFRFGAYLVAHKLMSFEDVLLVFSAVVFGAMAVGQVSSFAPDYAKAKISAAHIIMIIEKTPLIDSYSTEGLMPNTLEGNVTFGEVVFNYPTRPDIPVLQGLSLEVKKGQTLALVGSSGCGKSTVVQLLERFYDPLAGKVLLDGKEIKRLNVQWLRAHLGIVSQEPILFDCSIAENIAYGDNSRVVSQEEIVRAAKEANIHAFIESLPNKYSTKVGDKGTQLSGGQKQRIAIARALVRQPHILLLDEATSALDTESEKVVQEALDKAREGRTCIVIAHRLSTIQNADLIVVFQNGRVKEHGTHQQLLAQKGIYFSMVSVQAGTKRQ
compound,measurement,setting,value
C[C@]12CC[C@@H]3c4ccc(OS(=O)(=O)O)cc4CC[C@H]3[C@@H]1CCC2=O [ESTRONE SULFURIC ACID],Activity,[1],transporter substrate
same,Activity,[2],transporter substrate
same,Activity,[3],transporter substrate
same,Activity,[4],transporter substrate
OXALIPLATIN,Activity,[5],transporter substrate
same,Activity,[6],transporter substrate
O=C1OC(c2ccc(O)c(S(=O)(=O)[O-])c2)(c2ccc(O)c(S(=O)(=O)[O-])c2)c2c(Br)c(Br)c(Br)c(Br)c21.[Na+].[Na+] [SULFOBROMOPHTHALEIN SODIUM],Activity,[1],transporter substrate
same,Activity,[7],transporter substrate
same,Activity,[3],transporter substrate
same,Activity,[4],transporter substrate
CCCCCCCCCCCCCCSCC(=O)OC[C@H](COP(=O)([O-])OCC[N+](C)(C)C)OC(=O)CSCCCCCCCCCCCCCC [PHOSPHATIDYLCHOLINE],Activity,[8],transporter substrate
C[C@]12CC[C@H]3[C@@H](CCC4=CC(=O)CC[C@@]43C)[C@@H]1CC[C@@H]2O [TESTOSTERONE],Activity,[9],transporter inhibitor
CN/C(=N/CCSCc1nc[nH]c1C)NC#N [CIMETIDINE],Activity,[9],transporter inhibitor
C[C@H]1O[C@@H](O[C@H]2[C@@H](O)C[C@H](O[C@H]3[C@@H](O)C[C@H](O[C@H]4CC[C@@]5(C)[C@H](CC[C@@H]6[C@@H]5C[C@@H](O)[C@]5(C)[C@@H](C7=CC(=O)OC7)CC[C@]65O)C4)O[C@@H]3C)O[C@@H]2C)C[C@H](O)[C@@H]1O [DIGOXIN],Activity,[10],transporter substrate
same,Activity,[8],transporter substrate
CC[C@]1(O)C[C@@H]2CN(CCc3c([nH]c4ccccc34)[C@@](C(=O)OC)(c3cc4c(cc3OC)N(C)[C@H]3[C@@](O)(C(=O)OC)[C@H](OC(C)=O)[C@]5(CC)C=CCN6CC[C@]43[C@@H]65)C2)C1 [VINBLASTINE],Activity,[10],transporter substrate
same,Activity,[8],transporter substrate
O=C(O)COCCN1CCN(C(c2ccccc2)c2ccc(Cl)cc2)CC1 (stereo unspecified) [CETIRIZINE],Activity,[9],transporter inhibitor
Cc1cccc(C)c1NC(=O)CC12CCCN1CCC2 [PILSICAINIDE],Activity,[9],transporter inhibitor
CC(=O)O[C@H]1C(=O)[C@@]2(C)[C@H]([C@H](OC(=O)c3ccccc3)[C@]3(O)C[C@H](OC(=O)[C@H](O)[C@@H](NC(=O)c4ccccc4)c4ccccc4)C(C)=C1C3(C)C)[C@]1(OC(C)=O)CO[C@@H]1C[C@@H]2O [PACLITAXEL],Activity,[10],transporter substrate
same,Activity,[8],transporter substrate
